# Measured values: the supplement of paper PMC10920090
# What was measured:
# MDA-MB-231 [1] = test: drug sensitivity score (DSS), cytotoxicity CellTox Green; higher = more cytotoxic; extreme values may be limits of the assay; conditions: 72 h
# MDA-MB-231 [2] = test: drug sensitivity score (DSS), cell viability CellTiter-Glo; higher = more sensitive; extreme values may be limits of the assay; conditions: 72 h
# 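For drug sensitivity score (DSS), cytotoxicity CellTox Green in this document: DSS summarises each dose–response curve by combining IC50, EC50, maximal inhibition and efficacy across drug concentrations.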
SMILES,drug sensitivity score (MDA-MB-231 [1]; shRNA: shPPFIA1_1) [DSS],drug sensitivity score (MDA-MB-231 [1]; shRNA: shScramble) [DSS],drug sensitivity score (MDA-MB-231 [2]; shRNA: shPPFIA1_1) [DSS],drug sensitivity score (MDA-MB-231 [2]; shRNA: shScramble) [DSS]
S=c1[nH]cnc2nc[nH]c12 [Mercaptopurine],0,0,5.1,12
Cc1ccc(C(=O)Nc2ccc(Oc3cc4cnn(C)c4cc3-c3cn[nH]c3)c(F)c2)c(=O)n1-c1ccc(F)cc1 [Merestinib],0,0,9,0
CN(C)C(=N)NC(=N)N [Metformin],0,0,0,0
CN(Cc1cnc2nc(N)nc(N)c2n1)c1ccc(C(=O)N[C@@H](CCC(=O)O)C(=O)O)cc1 [Methotrexate],0,0,2.8,4
C[C@H]1C[C@@H]2[C@H]([C@@H](O)C[C@@]3(C)[C@H]2CC[C@]3(O)C(=O)CO)[C@@]2(C)C=CC(=O)C=C12 [Methylprednisolone],0,0,0,0
CO[C@@H]1[C@H](N(C)C(=O)c2ccccc2)C[C@H]2O[C@]1(C)n1c3ccccc3c3c4c(c5c6ccccc6n2c5c31)C(=O)NC4 [Midostaurin],0,0.1,0,3.5
CNC(=O)c1nn(C)c2c1C(C)(C)Cc1cnc(Nc3ccc(N4CCN(C)CC4)cc3)nc1-2 [Milciclib],0.3,0,0.9,5.1
CO[C@@]12[C@H](COC(N)=O)C3=C(C(=O)C(C)=C(N)C3=O)N1C[C@@H]1N[C@@H]12 [Mitomycin C],0,0,0,0
Clc1ccc(C(c2ccccc2Cl)C(Cl)Cl)cc1 (stereo not drawn) [Mitotane],0,0,0,0
O=C1c2c(O)ccc(O)c2C(=O)c2c(NCCNCCO)ccc(NCCNCCO)c21 [Mitoxantrone],0,0,0,3.2
Nc1ccccc1NC(=O)c1ccc(CNc2nccc(-c3cccnc3)n2)cc1 [Mocetinostat],10.5,4.8,3.6,8.3
N#CCNC(=O)c1ccc(-c2ccnc(Nc3ccc(N4CCOCC4)cc3)n2)cc1 [Momelotinib],0,0,0,0
CC1(C)CNc2cc(NC(=O)c3cccnc3NCc3ccncc3)ccc21 [Motesanib],0,0.3,0,0
FC(F)(F)c1ccc(/C=C/c2nc(COc3ccc(CCCCn4ccnn4)cc3)co2)cc1 [Mubritinib],0,0,2.1,2
Cc1cc(OCc2nnc(SC3CCCC3)n2-c2cccnc2)ccc1-c1ccc(S(C)(=O)=O)cc1 [NMS-873],7.6,7.4,6.8,14.7
CCN1CCN(Cc2ccc(-c3cc4c(N[C@H](C)c5ccccc5)ncnc4[nH]3)cc2)CC1 [NVP-AEE788],0,0,0.4,0.8
CCN1CCN(c2ccc(Nc3cc(N(C)C(=O)Nc4c(Cl)c(OC)cc(OC)c4Cl)ncn3)cc2)CC1 [NVP-BGJ398],0,0,0,0
CNC(=O)c1ccc(-c2cnc3ncc(Cc4ccc5ncccc5c4)n3n2)cc1F [NVP-INC280],0,0,4.5,10.5
CC1(C)CCC(c2ccc(Cl)cc2)=C(CN2CCN(c3ccc(C(=O)NS(=O)(=O)c4ccc(N[C@H](CCN5CCOCC5)CSc5ccccc5)c(S(=O)(=O)C(F)(F)F)c4)cc3)CC2)C1 [Navitoclax],15.2,12.4,4.4,4.4
COc1nc(N)nc2c1ncn2[C@@H]1O[C@H](CO)[C@@H](O)[C@@H]1O [Nelarabine],0,0,0,0
CCOc1cc2ncc(C#N)c(Nc3ccc(OCc4ccccn4)c(Cl)c3)c2cc1NC(=O)/C=C/CN(C)C [Neratinib],0.2,0,6.3,8.3

SMILES,drug sensitivity score (MDA-MB-231 [1]; shRNA: shPPFIA1_1) [DSS],drug sensitivity score (MDA-MB-231 [1]; shRNA: shScramble) [DSS],drug sensitivity score (MDA-MB-231 [2]; shRNA: shPPFIA1_1) [DSS],drug sensitivity score (MDA-MB-231 [2]; shRNA: shScramble) [DSS]
Cc1cn(-c2cc(NC(=O)c3ccc(C)c(Nc4nccc(-c5cccnc5)n4)c3)cc(C(F)(F)F)c2)cn1 [Nilotinib],4.5,0.2,0,3.8
CC1(C)NC(=O)N(c2ccc([N+](=O)[O-])c(C(F)(F)F)c2)C1=O [Nilutamide],0,0,0,0
COC(=O)c1ccc2c(c1)NC(=O)/C2=C(\Nc1ccc(N(C)C(=O)CN2CCN(C)CC2)cc1)c1ccccc1 [Nintedanib],1.1,6.7,0,8.1
NC(=O)c1cccc2cn(-c3ccc([C@@H]4CCCNC4)cc3)nc12 [Niraparib],0,0,2.8,1.9
COc1ccc(C2=N[C@@H](c3ccc(Cl)cc3)[C@@H](c3ccc(Cl)cc3)N2C(=O)N2CCNC(=O)C2)c(OC(C)C)c1 [Nutlin-3],0,0,0,0
COc1cccc2cc(-c3nc([C@H]4CC[C@H](C(=O)O)CC4)n4ncnc(N)c34)[nH]c12 [OSI-027],0,0,0,2.9
O=C(Nc1ccc(OC(F)(F)F)cc1)c1sccc1NCc1ccnc2ccccc12 [OSI-930],0,0.9,4.5,8
CC(=O)c1cnc2ccc(-c3cc(Cl)c(O)c(Cl)c3)nc2c1N[C@H]1CC[C@H](CN(C)C)CC1 [OTSSP167],0,0.2,22.4,9.1
Cc1sc2c(c1C)C(c1ccc(Cl)cc1)=N[C@@H](CC(=O)Nc1ccc(O)cc1)c1nnc(C)n1-2 [OTX015],0,0,0,10.2
COC1=CC(c2cc3ccccc3[nH]2)=N/C1=C\c1[nH]c(C)cc1C [Obatoclax],0,0,0,0
O=C(c1cc(Cc2n[nH]c(=O)c3ccccc23)ccc1F)N1CCN(C(=O)C2CC2)CC1 [Olaparib],0,0,0.1,0.8
COC(=O)C[C@](O)(CCCC(C)(C)O)C(=O)O[C@@H]1C(OC)=C[C@]23CCCN2CCc2cc4c(cc2[C@H]13)OCO4 [Omacetaxine],11.8,18.4,11.2,22.9
COc1ncc(-c2ccc3nccc(-c4ccnnc4)c3c2)cc1NS(=O)(=O)c1ccc(F)cc1F [Omipalisib],0,0,0,10.9
CC(C)c1cc(C(=O)N2Cc3ccc(CN4CCN(C)CC4)cc3C2)c(O)cc1O [Onalespib],0,2.6,13.6,10.6
COC[C@H](NC(=O)c1cnc(C)s1)C(=O)N[C@@H](COC)C(=O)N[C@@H](Cc1ccccc1)C(=O)[C@@]1(C)CO1 [Oprozomib],17,16.8,11.4,11.5
Cc1[nH]c(/C=C2\C(=O)Nc3ccccc32)c(C)c1CCC(=O)O [Orantinib],10.8,16.2,0,0
CNC(=O)c1ccc2cc([C@@]3(O)CCn4cncc43)ccc2c1 [Orteronel],0,0,0,0
C=CC(=O)Nc1cc(Nc2nccc(-c3cn(C)c4ccccc34)n2)c(OC)cc1N(C)CCN(C)C [Osimertinib],0,0,1.2,3.9
O=C(O)C(=O)O.[NH-][C@@H]1CCCC[C@H]1[NH-].[Pt+2] [Oxaliplatin],0,0,0,2
C=CCc1cccc(/C=N/NC(=O)CN2CCN(Cc3ccccc3)CC2)c1O [PAC-1],0,0,2.7,3.8
O=C(Nc1cccnc1)N1CCC(Cc2cccc(Oc3ccc(C(F)(F)F)cn3)c2)CC1 [PF-3845],4,0.3,4.3,4

SMILES,drug sensitivity score (MDA-MB-231 [1]; shRNA: shPPFIA1_1) [DSS],drug sensitivity score (MDA-MB-231 [1]; shRNA: shScramble) [DSS],drug sensitivity score (MDA-MB-231 [2]; shRNA: shPPFIA1_1) [DSS],drug sensitivity score (MDA-MB-231 [2]; shRNA: shScramble) [DSS]
COc1ccccc1S(=O)(=O)Nc1ccc2c(c1)CN(C)C(=O)N2 [PFI-1],0,0,1.4,4.4
CN1CCN(c2cc(C(=O)Nc3ccc4c(c3)-c3c(c(C(N)=O)nn3-c3ccc(F)cc3)CC4)c(Cl)cn2)CC1 [PHA 408],5.2,6.9,4.2,6.3
CCn1nnc2c(N3CCOCC3)nc(-c3ccc(NC(=O)Nc4ccc(C(=O)N5CCN(C)CC5)cc4)cc3)nc21 [PKI-402],0,0,1.1,9.4
O=C(Nc1cc(Cl)cc2c1[nH]c1cnccc12)c1cccnc1 [PS-1145],0,0.3,0.9,0.9
COc1cc(Br)c(Nc2nc(-c3c(C)nc4ncccn34)cs2)c(Br)c1 [PTC-209],0,0,0,7.5
CC(=O)O[C@H]1C(=O)[C@@]2(C)[C@H]([C@H](OC(=O)c3ccccc3)[C@]3(O)C[C@H](OC(=O)[C@H](O)[C@@H](NC(=O)c4ccccc4)c4ccccc4)C(C)=C1C3(C)C)[C@]1(OC(C)=O)CO[C@@H]1C[C@@H]2O [Paclitaxel],8.8,9.2,0,12.8
C1=N/C2=N/c3ccc(OCCN4CCCC4)c(c3)COC/C=C/COCc3cccc(c3)C(=C1)N2 [Pacritinib],1.6,0.6,2.4,6.2
CC(=O)c1c(C)c2cnc(Nc3ccc(N4CCNCC4)cn3)nc2n(C2CCCC2)c1=O [Palbociclib],0,0,0,2.4
COc1ccc(COc2cc3oc(=O)c4cc(C(C)O)ccc4c3cc2OC)cc1 (stereo not drawn) [Palomid-529],0,0,0,0
Cc1[nH]c2ccccc2c1CCNCc1ccc(/C=C/C(=O)NO)cc1 [Panobinostat],11.6,11.4,10.9,14
C/C(=C\c1csc(C)n1)[C@@H]1C[C@@H]2O[C@]2(C)CCC[C@H](C)[C@H](O)[C@@H](C)C(=O)C(C)(C)[C@@H](O)CC(=O)O1 [Patupilone],8.3,5.8,0,12.3
Cc1ccc(Nc2nccc(N(C)c3ccc4c(C)n(C)nc4c3)n2)cc1S(N)(=O)=O [Pazopanib],0,0,2.7,7.9
CCOc1cc2ncc(C#N)c(Nc3ccc(F)c(Cl)c3)c2cc1NC(=O)/C=C/CN(C)C [Pelitinib],2.7,0,14.9,21.1
Nc1nc2[nH]cc(CCc3ccc(C(=O)N[C@@H](CCC(=O)O)C(=O)O)cc3)c2c(=O)[nH]1 [Pemetrexed],0,0,5.6,8.3
OC[C@H]1O[C@@H](n2cnc3c2N=CNC[C@H]3O)C[C@@H]1O [Pentostatin],0,0,0.5,0.2
CCCCCCCCCCCCCCCCCCOP(=O)([O-])OC1CC[N+](C)(C)CC1 [Perifosine],0.9,0,0,0.9
NS(=O)(=O)OC[C@@H]1C[C@@H](n2ccc3c(N[C@H]4CCc5ccccc54)ncnc32)C[C@@H]1O [Pevonedistat],7.6,7,16.9,10.6
FC(F)(F)c1ccc(CNc2ccc(Cc3c[nH]c4ncc(Cl)cc34)cn2)cn1 [Pexidartinib],0,0,0,0
CS(=O)(=O)N1CCN(Cc2cc3nc(-c4cccc5[nH]ncc45)nc(N4CCOCC4)c3s2)CC1 [Pictilisib],0,0,0,2.9
COc1ccc(Cl)c(Nc2nc3ccccc3nc2NS(=O)(=O)c2cccc(NC(=O)C(C)(C)N)c2)c1 [Pilaralisib],0.9,0,0,0.9
